± gives the expanded uncertainty stated by the source.
Experiment: cn = amount concentration of the nth substance listed, in mol/dm3
Details: 101 kPa, Liquid; for speed of sound: Pulse-echo method

NC(N)=O [urea] + O
Details	mass density [kg/m3]	speed of sound [m/s]
283.1 K, c1 = 4.275	1069 ± 4	1578.8 ± 2.5
288.15 K, c1 = 2.065	1032 ± 3	1527.2 ± 2.4
288.15 K, c1 = 3.148	1049 ± 4	1557.2 ± 2.5
288.15 K, c1 = 4.269	1067 ± 4	1587.6 ± 2.5
288.15 K, c1 = 5.421	1084 ± 4	1617 ± 2.5
288.15 K, c1 = 7.839	1120 ± 5	1676.8 ± 2.6
288.15 K, c1 = 9.106	1138 ± 6	1706.5 ± 2.7
298.15 K, c1 = 2.059	1030 ± 3	1548.9 ± 2.5
298.15 K, c1 = 3.139	1047 ± 4	1574.8 ± 2.5
298.15 K, c1 = 4.253	1063 ± 4	1601.1 ± 2.5
298.15 K, c1 = 5.405	1081 ± 4	1627.1 ± 2.6
298.15 K, c1 = 7.802	1115 ± 5	1680.3 ± 2.6
298.15 K, c1 = 9.069	1134 ± 5	1706.3 ± 2.7
308.15 K, c1 = 2.051	1026 ± 3	1564.8 ± 2.5
308.15 K, c1 = 3.124	1041 ± 4	1587.1 ± 2.5
308.15 K, c1 = 4.232	1058 ± 4	1610.9 ± 2.5
308.15 K, c1 = 5.378	1076 ± 4	1633.2 ± 2.6
308.15 K, c1 = 7.765	1109 ± 5	1680.9 ± 2.6
308.15 K, c1 = 9.021	1128 ± 5	1704.1 ± 2.7
